The source of these data is EP4744649A1, “SUSTAINED-RELEASE INJECTABLE COMPOSITION FOR TREATING OR PREVENTING NEUROLOGICAL DISORDERS, AND METHOD FOR PREPARING SAME” (Inventage Lab Inc., priority 2023, dated 2025).

For data set [1], the system named is PTZ-induced seizure rat model. As to the kind of experiment: PTZ (pentylenetetrazole)-induced epileptic seizure model: seizure intensity, grade distribution, mortality. The format is in vivo, rats. Particulars: for seizure-induced mortality: 10 animals; for seizure intensity: 60 mg/head IP on D1 and D14 (G2). How it is done:
In order to evaluate the seizure-suppressing effect of administration of the microparticles of the present invention in an epilepsy-induced model, administration groups were set up as follows.
G3 and G4 were administered to rats at different doses using the above-described Example 7.
(§1) After the completion of acclimatization, the rats were divided into groups. On day 1 (D1), the test substances G1 to G4 were administered intraperitoneally and subcutaneously, and 30 minutes later, PTZ (pentylenetetrazole, Sigma, USA) dissolved in 0.9% sterile saline was administered intraperitoneally at a dose of 37.5 mg/kg to induce epileptic seizures. In the normal group, only the same amount of saline was administered. Then, PTZ was repeatedly administered at time points D2, D3, D5, D7, D14, D21, and D28 to induce epileptic seizures. The intensity of the seizures was graded and evaluated for 30 minutes immediately after PTZ administration at each time point according to the following criteria: [Table 7]

The nature of data set [2]: Body weight change in the PTZ seizure study. In kind it is in vivo, rats. The note with it: 60 mg/head IP (G2); difference not statistically significant. How it is done: as §1
During the test period, body weight continued to increase in all the groups without decrease.

For `C=C(C)[C@@H]1CCC(C)=C[C@H]1c1c(O)cc(CCCCC)cc1O` [CBD solution, cannabidiol], the seizure-induced mortality result is given as “no deaths occurred” in data set [1] (60 mg/head IP (G2), until week 3) and “three animals died” in data set [1] (60 mg/head IP (G2), week 4). In data set [1] (60 mg/head IP (G2), week 2, at the time of additional administration), the “individuals with severe seizures” value was 10%. Also, the “individuals with grade-5 seizures” value in data set [1] (60 mg/head IP (G2), week 4) was “more than half of individuals”. Further, the seizure intensity in data set [1] (day 1, stages 0 to 6) is 2.4 grade; in data set [1] (week 1), 3.9 grade; in data set [1] (week 2, after additional administration) it was 2.9 grade; in data set [1] (weeks 3 and 4), 4.9 grade. Also, the weight gain entry in data set [2] was “slightly smaller than that in the other groups”.
